Experimental data reported in patent publication US20190091272A1, “ANTI-CANCER DRUG COMPOSITION INCLUDING GANODERMA EXTRACT AND AMPHOTERICIN B” (Taiwan Indigena Botanica Co., Ltd., priority 2015, published 2019).

Test system: human liver carcinoma cell lines including Hep G2, Hep 3G and Hep 5J
Test: Summary of Examples 1 and 2 over the three liver carcinoma cell lines
Format: cell-based
Procedure: This example used human liver carcinoma cell lines including Hep G2, Hep 3G and Hep 5J for experiments, and the cells were cultured in 96-well plates. The experiments were divided into two groups including a pre-treatment group and a co-treatment group. The cells in the pre-treatment group were pre-treated with the Ganoderma ethanolic extracts for 24 hours and then treated with the amphotericin B for 48 hours, while the cells in the co-treatment group were co-treated with the Ganoderma ethanolic extracts and the amphotericin B together for 48 hours.
In the pre-treatment group, the cells were pre-treated with the Ganoderma ethanolic extracts at concentrations of 0, 1, 2.5 and 5 mg/ml for 24 hours, and then treated with the amphotericin B at concentrations between 0-80 μM for 48 hours, followed by MTT assay. In the co-treatment group, the cells were co-treated with the Ganoderma ethanolic extracts at concentrations of 0, 1, 2.5 and 5 mg/ml and the amphotericin B at concentrations between 0-80 μM for 48 hours, followed by MTT assay. The MTT solution (3-(4,5-Dimethylthiazol-2-yl)-2,5-diphenyltetrazolium bromide) was added to each well, and the plates were further incubated for 45-60 minutes. The cell culture medium was then removed and replaced by DMSO (dimethyl sulfoxide). Subsequently, the optical density (OD) was measured at 550 nm. […]

C[C@@H]1[C@H](O)[C@@H](C)/C=C/C=C/C=C/C=C/C=C/C=C/C=C/[C@H](O[C@@H]2O[C@H](C)[C@@H](O)[C@H](N)[C@@H]2O)C[C@@H]2O[C@](O)(C[C@@H](O)C[C@@H](O)[C@H](O)CC[C@@H](O)C[C@@H](O)CC(=O)O[C@H]1C)C[C@H](O)[C@H]2C(=O)O [amphotericin B]
effective dose of the amphotericin B (after pre-treatment with the Ganoderma ethanolic extract, from the examples): at least 3 μM | safe and effective dose of the amphotericin B (based on the results from Examples 1 and 2): 3 to 10 µM
